Patent US20250011307A1, “CRYSTALLINE FORMS OF BIARYL YAP/TAZ-TEAD PROTEIN-PROTEIN INTERACTION INHIBITORS” (Novartis AG, priority 2021, published 2025)
Counter-ions that a name gives are not always drawn.

What was measured:
Type in all cases: physicochemical
[1] = Solubility after equilibration at 25° C. for 24 h, with final pH and XRPD of solid residues; details: Compound B forms
[2] = Hygroscopicity (loss on drying by TGA and XRPD, as is and after storage at 92% / 80% RH); details: Compound B forms
[3] = Solid state bulk stability stress test (HPLC degradation products, color, XRPD); design: key to CL color: A: No change; B: Slight discoloration; C: Medium discoloration; D: Strong discoloration; details: Compound B forms
[4] = Xenon light stress test of bulk (HPLC degradation products, color, XRPD); design: key to CL color: A: No change; B: Slight discoloration; C: Medium discoloration; D: Strong discoloration; details: Compound B forms, Xenon light (1200 kLuxh, 25° C.)
Protocol: (§1) X-ray powder diffraction (XRPD) patterns were obtained using a Bruker Advance D8 in reflection geometry. Powders were analyzed using a zero background Si flat sample holder. The radiation used was Cu Kα (A=1.5418 Å). Patterns were measured between 2° and 40° 2theta. • Sample amount: 5-10 mg • Sample holder: zero background Si flat sample holder
as §1, with “radiation” for “radiation used”, “(λ=1.5418” for “(A=1.5418”

[5] = Excipient compatibility stress test (HPLC degradation products, color); design: key to CL color: A: No change; B: Slight discoloration; C: Medium discoloration; D: Strong discoloration; details: Compound B forms
[6] = Blank FaSSIF, target concentration 2 mg/mL
[7] = FaSSIF V2 pH 6.5, target concentration 2 mg/mL
[8] = FeSSIF V2 pH 5.8, target concentration 2 mg/mL
[9] = SGF pH 2.0, target concentration 2 mg/mL
[10] = Water, target concentration 2 mg/mL
[11] = pH 1.2, 100 mM HCl, target concentration 2 mg/mL
[12] = pH 3.0, 50 mM citrate buffer, target concentration 2 mg/mL
[13] = pH 4.7, 50 mM acetate buffer, target concentration 2 mg/mL
[14] = pH 6.8, 50 mM phosphate buffer with 50 mM Na taurocholate
[15] = pH 6.8, 50 mM phosphate buffer with 50 mM Na taurocholate, target concentration 2 mg/mL
[16] = pH 6.8, 50 mM phosphate buffer, target concentration 2 mg/mL
[17] = After 1 day at 92% RH, TGA temperature per cell: free form @233° C., succinate @205° C., L-malate @200° C., L-lactate @200° C.
[18] = Hygroscopicity, As is, TGA temperature per cell: free form @233° C., succinate @205° C., L-malate @200° C., L-lactate @200° C.
[19] = 2 weeks 50° C./75% RH, 1% in HGC powder
[20] = 2 weeks 50° C./75% RH, 1% in HPMC powder
[21] = 2 weeks 50° C./closed, 1% in HGC powder
[22] = 2 weeks 50° C./closed, 1% in HPMC powder

CNC[C@]1(c2ccccc2)Oc2cc(F)c(Cl)c(-c3c(C(N)=O)ccc(OC)c3F)c2[C@@H]1C [Compound B Free form, amorphous, 2-((2S,3S,4S)-5-Chloro-6-fluoro-3-methyl-2-((methylamino)methyl)-2-phenyl-2,3-dihydrobenzofuran-4-yl)-3-fluoro-4-methoxybenzamide]
final pH ([1]; Blank FaSSIF): [7.36]
Sol. (solubility) [1, 6]: 1.49 mg/mL
final pH ([1]; FaSSIF V2 pH 6.5): [7.19]
Sol. (solubility) [1, 7]: 1.15 mg/mL
final pH ([1]; FeSSIF V2 pH 5.8): [6.01]
Sol. (solubility) [1, 8]: >2 mg/mL
final pH ([1]; SGF pH 2.0): [2.22]
Sol. (solubility) [1, 9]: >2 mg/mL
final pH ([1]; Water): [8.78]
Sol. (solubility) [1, 10]: 0.07 mg/mL
final pH ([1]; pH 1.2, 100 mM HCl): [1.16]
Sol. (solubility) [1, 11]: >2 mg/mL
final pH ([1]; pH 3.0, 50 mM citrate buffer): [3.08]
Sol. (solubility) [1, 12]: >2 mg/mL
final pH ([1]; pH 4.7, 50 mM acetate buffer): [4.84]
Sol. (solubility) [1, 13]: >2 mg/mL
final pH ([1]; pH 6.8, 50 mM phosphate buffer): [6.90]
final pH [1, 14]: [6.72]
Sol. (solubility) [1, 15]: >2 mg/mL
Sol. (solubility) [1, 16]: >2 mg/mL
Loss on drying by TGA [2, 17]: 2.14%@233 °C
Loss on drying by TGA [2, 18]: 1.30%@233 °C
Bulk (XRPD) ([3]; 2 weeks 50° C./75% RH): gel-like
CL color ([3]; 2 weeks 50° C./75% RH): A
DP[%] degradation products, Bulk (HPLC) ([3]; 2 weeks 50° C./75% RH): 4.84%
Bulk (XRPD) ([3]; 2 weeks 80° C./11% RH): gel-like
CL color ([3]; 2 weeks 80° C./11% RH): C
DP[%] degradation products, Bulk (HPLC) ([3]; 2 weeks 80° C./11% RH): 13.00%
Bulk (XRPD) ([3]; 2 weeks 80° C./75% RH): gel-like
CL color ([3]; 2 weeks 80° C./75% RH): C
DP[%] degradation products, Bulk (HPLC) ([3]; 2 weeks 80° C./75% RH): 14.88%
Bulk amber vial (XRPD) ([4]; amber vial): No change
CL color ([4]; amber vial): A
DP[%] degradation products, Bulk amber vial (HPLC) ([4]; amber vial): 0.19%
Bulk clear quartz vial (XRPD) ([4]; clear quartz vial): No change
CL color ([4]; clear quartz vial): C
DP[%] degradation products, Bulk clear quartz vial (HPLC) ([4]; clear quartz vial): 2.74%
CL color [5, 19]: A
DP[%] degradation products [5, 19]: 2.50%
CL color [5, 20]: A
DP[%] degradation products [5, 20]: 4.33%
CL color [5, 21]: A
DP[%] degradation products [5, 21]: 1.87%
CL color [5, 22]: A
DP[%] degradation products [5, 22]: 2.02%

CNC[C@]1(c2ccccc2)Oc2cc(F)c(Cl)c(-c3c(C(N)=O)ccc(OC)c3F)c2[C@@H]1C [Compound B L-lactate salt, 2-((2S,3S,4S)-5-Chloro-6-fluoro-3-methyl-2-((methylamino)methyl)-2-phenyl-2,3-dihydrobenzofuran-4-yl)-3-fluoro-4-methoxybenzamide]
final pH ([1]; Blank FaSSIF): [6.53]
final pH ([1]; FaSSIF V2 pH 6.5): [6.48]
final pH ([1]; FeSSIF V2 pH 5.8): [5.79]
final pH ([1]; SGF pH 2.0): [2.24]
final pH ([1]; Water): [7.03]
final pH ([1]; pH 1.2, 100 mM HCl): [1.12]
final pH ([1]; pH 3.0, 50 mM citrate buffer): [3.06]
final pH ([1]; pH 4.7, 50 mM acetate buffer): [4.70]
final pH ([1]; pH 6.8, 50 mM phosphate buffer): [6.79]
final pH [1, 14]: [6.58]
XRPD ([2]; After 1 day at 80% RH): No change
Loss on drying by TGA ([2]; After 1 day at 80% RH, @200° C.): 1.08%@200 °C
XRPD ([2]; After 1 day at 92% RH): No change
Loss on drying by TGA [2, 17]: 1.18%@200 °C
Loss on drying by TGA [2, 18]: 0.92%@200 °C
Bulk (XRPD) ([3]; 2 weeks 50° C./75% RH): No change
CL color ([3]; 2 weeks 50° C./75% RH): A
DP[%] degradation products, Bulk (HPLC) ([3]; 2 weeks 50° C./75% RH): 0.33%
Bulk (XRPD) ([3]; 2 weeks 80° C./11% RH): No change
CL color ([3]; 2 weeks 80° C./11% RH): A
DP[%] degradation products, Bulk (HPLC) ([3]; 2 weeks 80° C./11% RH): 0.31%
Bulk (XRPD) ([3]; 2 weeks 80° C./75% RH): No change
CL color ([3]; 2 weeks 80° C./75% RH): A
DP[%] degradation products, Bulk (HPLC) ([3]; 2 weeks 80° C./75% RH): 2.11%
Bulk amber vial (XRPD) ([4]; amber vial): No change
CL color ([4]; amber vial): A
DP[%] degradation products, Bulk amber vial (HPLC) ([4]; amber vial): 0.17%
Bulk clear quartz vial (XRPD) ([4]; clear quartz vial): No change
CL color ([4]; clear quartz vial): B
DP[%] degradation products, Bulk clear quartz vial (HPLC) ([4]; clear quartz vial): 0.38%
CL color [5, 19]: A
DP[%] degradation products [5, 19]: 0.44%
CL color [5, 20]: A
DP[%] degradation products [5, 20]: 0.42%
CL color [5, 21]: A
DP[%] degradation products [5, 21]: 0.22%
CL color [5, 22]: A
DP[%] degradation products [5, 22]: 0.33%

CNC[C@]1(c2ccccc2)Oc2cc(F)c(Cl)c(-c3c(C(N)=O)ccc(OC)c3F)c2[C@@H]1C [Compound B L-malate salt, 2-((2S,3S,4S)-5-Chloro-6-fluoro-3-methyl-2-((methylamino)methyl)-2-phenyl-2,3-dihydrobenzofuran-4-yl)-3-fluoro-4-methoxybenzamide]
final pH ([1]; Blank FaSSIF): [6.04]
final pH ([1]; FaSSIF V2 pH 6.5): [5.95]
final pH ([1]; FeSSIF V2 pH 5.8): [5.74]
final pH ([1]; SGF pH 2.0): [2.17]
final pH ([1]; Water): [4.34]
final pH ([1]; pH 3.0, 50 mM citrate buffer): [3.04]
final pH ([1]; pH 4.7, 50 mM acetate buffer): [4.62]
final pH ([1]; pH 6.8, 50 mM phosphate buffer): [6.59]
Loss on drying by TGA [2, 17]: 0.83%@200 °C
Loss on drying by TGA [2, 18]: 0.81%@200 °C
DP[%] degradation products, Bulk (HPLC) ([3]; 2 weeks 80° C./11% RH): 0.46%
DP[%] degradation products, Bulk (HPLC) ([3]; 2 weeks 80° C./75% RH): 2.84%
DP[%] degradation products, Bulk amber vial (HPLC) ([4]; amber vial): 0.16%
DP[%] degradation products, Bulk clear quartz vial (HPLC) ([4]; clear quartz vial): 1.53%
DP[%] degradation products [5, 19]: 1.32%
DP[%] degradation products [5, 20]: 2.65%
DP[%] degradation products [5, 21]: 0.24%
DP[%] degradation products [5, 22]: 0.36%

CNC[C@]1(c2ccccc2)Oc2cc(F)c(Cl)c(-c3c(C(N)=O)ccc(OC)c3F)c2[C@@H]1C [Compound B Succinate salt, 2-((2S,3S,4S)-5-Chloro-6-fluoro-3-methyl-2-((methylamino)methyl)-2-phenyl-2,3-dihydrobenzofuran-4-yl)-3-fluoro-4-methoxybenzamide]
final pH ([1]; Blank FaSSIF): [6.06]
Sol. (solubility) [1, 6]: >2 mg/mL
final pH ([1]; FaSSIF V2 pH 6.5): [6.06]
Sol. (solubility) [1, 7]: >2 mg/mL
final pH ([1]; FeSSIF V2 pH 5.8): [5.72]
Sol. (solubility) [1, 8]: >2 mg/mL
final pH ([1]; SGF pH 2.0): [2.20]
Sol. (solubility) [1, 9]: >2 mg/mL
final pH ([1]; Water): [4.97]
Sol. (solubility) [1, 10]: >2 mg/mL
final pH ([1]; pH 1.2, 100 mM HCl): [1.17]
Sol. (solubility) [1, 11]: >2 mg/mL
final pH ([1]; pH 3.0, 50 mM citrate buffer): [3.09]
Sol. (solubility) [1, 12]: >2 mg/mL
final pH ([1]; pH 4.7, 50 mM acetate buffer): [4.70]
Sol. (solubility) [1, 13]: >2 mg/mL
final pH ([1]; pH 6.8, 50 mM phosphate buffer): [6.64]
final pH [1, 14]: [6.43]
Sol. (solubility) [1, 15]: >2 mg/mL
Sol. (solubility) [1, 16]: >2 mg/mL
Loss on drying by TGA [2, 17]: 0.67%@205 °C
Loss on drying by TGA [2, 18]: 0.56%@205 °C
Bulk (XRPD) ([3]; 2 weeks 50° C./75% RH): No change
CL color ([3]; 2 weeks 50° C./75% RH): A
DP[%] degradation products, Bulk (HPLC) ([3]; 2 weeks 50° C./75% RH): 0.09%
Bulk (XRPD) ([3]; 2 weeks 80° C./11% RH): No change
CL color ([3]; 2 weeks 80° C./11% RH): A
DP[%] degradation products, Bulk (HPLC) ([3]; 2 weeks 80° C./11% RH): 0.08%
Bulk (XRPD) ([3]; 2 weeks 80° C./75% RH): No change
CL color ([3]; 2 weeks 80° C./75% RH): A
DP[%] degradation products, Bulk (HPLC) ([3]; 2 weeks 80° C./75% RH): 0.17%
Bulk amber vial (XRPD) ([4]; amber vial): No change
CL color ([4]; amber vial): A
DP[%] degradation products, Bulk amber vial (HPLC) ([4]; amber vial): 0.13%
Bulk clear quartz vial (XRPD) ([4]; clear quartz vial): No change
CL color ([4]; clear quartz vial): B
DP[%] degradation products, Bulk clear quartz vial (HPLC) ([4]; clear quartz vial): 2.38%
CL color [5, 19]: A
DP[%] degradation products [5, 19]: 0.25%
CL color [5, 20]: A
DP[%] degradation products [5, 20]: 0.99%
CL color [5, 21]: A
DP[%] degradation products [5, 21]: 0.15%
CL color [5, 22]: A
DP[%] degradation products [5, 22]: 0.17%
